Measurements taken from patent publication US20090023186A1, “USE OF VALPROIC ACID FOR ENHANCING PRODUCTION OF RECOMBINANT PROTEINS IN MAMMALIAN CELLS” (EXCELLGENE SA, priority 2007, published 2009).

Tested on: HEK293E cells
Test: Transient IgG expression, batch titer by ELISA, VPA concentration series (Example 1)
Format: cell-based, Human
Conditions: for Fold increase over control / Batch titer: IgG, day 5 after transfection; for Batch titer: 37° C.
Method: 10 million suspension-adapted HEK293E cells were resuspended in 0.5 ml of Ex-Cell 293 HEK 293 serum-free medium with 4 mmol/l L-glutamine (Cat. No. 14571C-1000 M; Lot No. 6A0093; SAFC Biosciences, Lenexa, Kans., USA, “Ex-Cell” medium; note: “Ex-Cell” medium-as used herein-refers to a medium comprising 4 mmol/l L-glutamine) in a 50-ml filter tube each (TPP AG, Trasadingen, Switzerland; Cat. No. 87050, Lot 20050174). In a separate set, 10 million suspension-adapted CHO DG44 cells were resuspended in 0.5 ml of ProCHO5 serum-free medium with 4 mmol/[…] hypoxanthine and 0.194 g/l thymidine (BioWhittaker (Lonza), Belgium; Cat. No. BE12-[…]; Lot No. 7 MB0040; “ProCHO5” medium; note: “ProCHO5” medium-as used herein-refers to a medium comprising 4 mmol/[…] hypoxanthine and 0.194 g/l thymidine) in a 50-ml filter tube each (TPP AG, Trasadingen, Switzerland; Cat. No. 87050, Lot 20050174). Then 12.5 μg plasmid DNA at a concentration of 1 μg/μl was added in each tube with the following composition 50% (6.25 μg) p-LC (SEQ ID NO: 1) 50% (6.25 μg) p-HC (SEQ ID NO: 3). Plasmid p-LC comprises the genetic information for the production of the light chain of an IgG antibody, plasmid p-HC comprises the genetic information for the production of the heavy chain of an IgG antibody. The particular vector constructs used in the present invention can also be obtained from the inventors. The inventors can be contacted via e-mail at […]. Moreover, commercial services do exist that produce any desired nucleotide sequence even comprising several kilobase pairs including complete expression cassettes in plasmid backgrounds (e.g., Invitrogen, Carlsbad, USA; Geneart, Germany.) Thus, providing the genetic sequence information of the plasmids should enable one of ordinary skill in the art to order the plasmids of the present invention at one of the commercial services listed. After shortly mixing the DNA with the cells by gentle shaking, 25 μg of 25-kd linear polyethyleneimine (“PEI”; Polysciences, Eppelheim, Germany; [2]) were added at a concentration of 1 μg/μl to each of the tubes. After shortly mixing by gentle shaking, the filter tubes containing the cells together with the DNA and PEI were transferred into an orbital shaker (Kühner Shaker Cabinet ISF-4-W, “Kühner shaker”, Kühner AG, Birsfelden, Switzerland), and the cells were incubated for 4 hours at 37° C. in a 5% CO2 atmosphere under shaking at 180 rpm. After that time, 4.5 ml of Ex-Cell medium were added to each of the filter tubes containing HEK 293 cells and 4.5 ml of Pro-CHO5 were added to each of the filter tubes containing CHO DG44 cells. Then, valproic acid was added to each of the tubes at the corresponding final concentration. The cells then were returned into the Kühner shaker and incubated at 37° C. in a 5% CO2 atmosphere under shaking at 180 rpm. […] The ELISA was performed as published in prior art. In short, Goat anti-human kappa light chain IgG (Biosource) was used for coating the ELISA-plates, and with AP-conjugated goat anti-human gamma chain IgG (Biosource) the synthesized IgG1 was detected. NPP was used as a substrate for the alkaline phosphatase. Absorption was measured at 405 nm against 490 nm using a microplate reader (SPECTRAmaxTM340; Molecular Devices, Palo Alto, Calif., USA).

Structure (SMILES): CCCC(CCC)C(=O)O [VPA, valproic acid]
- Fold increase over control (1.3 mmol/l final VPA): 2.2 fold
- Batch titer (1.3 mmol/l final VPA): 33.0 ± 4.3 mg/L
- Fold increase over control (2.5 mmol/l final VPA): 4.1 fold
- Batch titer (2.5 mmol/l final VPA): 61.8 ± 5.7 mg/L
- Fold increase over control (4 mmol/l final VPA): 5.3 fold
- Batch titer (4 mmol/l final VPA): 79.5 ± 3.6 mg/L
- Fold increase over control (5 mmol/l final VPA): 4.3 fold
- Batch titer (5 mmol/l final VPA): 64.5 ± 6.5 mg/L
- Fold increase over control (7.5 mmol/l final VPA): 1.8 fold
- Batch titer (7.5 mmol/l final VPA): 27.0 ± 3.1 mg/L
- Fold increase over control (11.3 mmol/l final VPA): 0.9 fold
- Batch titer (11.3 mmol/l final VPA): 13.5 ± 2.1 mg/L
- optimal final concentration (for batch titer, HEK293E cells, day 5): around 4 mmol/l
